In patent publication US20100093001A1 (priority 2006, published 2010):

Method for neuronal cells: Amyloid-beta-42 was incubated for one week at 1 mg/mL in 50mM Tris-HCl pH 7.4 and controlled the presence of amyloid-beta-42 fibers by electron microscopy. These mature amyloid-beta-42 (Aβ42) fibers were subsequently harvested by centrifugation and added to primary hippocampal mouse neurons and differentiated N2A cells at a final concentration of 5 μM.

| Substance | cytotoxicity (primary neurons) | N. Red (neutral red incorporation) (neuronal cells) |
| --- | --- | --- |
| H-ISFLIF-OH [NH2—ISFLIF—COOH] | dramatic cytotoxicity | – |
| H-KVQIIN-OH [NH2—KVQIIN—COOH] | dramatic cytotoxicity | – |
| H-STVIIE-OH [NH2—STVIIE—COOH] | dramatic cytotoxicity | – |
| ganglioside GM1 | – | 36.1 ± 2.9 |
